Source: US20070142638A1, “Ornithine derivatives as prostaglandin e2 agonists or antagonists” (Astellas Pharma Inc., priority 2003, published 2007)

Biological target: T1, prostanoid receptor subtype (human EP4) (Homo sapiens, UniProt P35408)
T1 construct: expressed in transfected cells; host or cells: COS-7 cells (membrane fraction)
Test: Binding assay using membrane preparation with the expression of prostanoid receptor subtype
Details: test compound at 1.0×10^−8 M (10 nM); competition with [^3H]-PGE2 10 nM; membrane fraction of COS-7 cells transfected with human EP4
Procedure: The radioactivity associated with the filter was measured by liquid scintillation counting.
The following buffer was used in all reactions.

T1 sequence (P35408 whole entry): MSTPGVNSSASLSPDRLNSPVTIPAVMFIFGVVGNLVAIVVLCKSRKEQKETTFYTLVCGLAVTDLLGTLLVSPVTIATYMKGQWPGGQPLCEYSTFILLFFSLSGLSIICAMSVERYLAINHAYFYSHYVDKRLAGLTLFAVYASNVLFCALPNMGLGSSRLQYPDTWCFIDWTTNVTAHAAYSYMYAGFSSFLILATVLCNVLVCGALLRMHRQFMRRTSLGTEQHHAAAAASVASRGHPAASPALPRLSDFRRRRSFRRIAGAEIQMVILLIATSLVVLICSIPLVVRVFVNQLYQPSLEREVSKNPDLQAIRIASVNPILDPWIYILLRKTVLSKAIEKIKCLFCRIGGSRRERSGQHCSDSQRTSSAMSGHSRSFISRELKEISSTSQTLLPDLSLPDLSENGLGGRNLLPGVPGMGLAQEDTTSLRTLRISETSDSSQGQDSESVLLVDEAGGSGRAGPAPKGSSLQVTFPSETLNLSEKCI

inhibition at 0.01 µM: ≥ 80%
Structure (SMILES): O=C(O)CCCCCNC(=O)[C@H](CCCNC(=O)OCc1ccccc1)NC(=O)c1cc2ccccc2o1 [Example 23, Sodium 6-{(2S)-2-[(1-benzofuran-2-yl-carbonyl)-amino]-5-[benzyloxycarbonylamino]pentanoylamino}-hexanoate]
